From patent US20220184003A1, “Formulations of Cannabidiol Derivatives and Their Use as Modulators of Cannabinoid Receptor Type 2 (CB2)” (EMERALD HEALTH PHARMACEUTICALS INC, priority 2019, published 2022)

How the values were obtained:
in vitro = in vitro ADME; details: plasma
[1] = Turbidimetric aqueous solubility (estimated precipitation range); type: physicochemical; details: aqueous solubility test at 37° C.
[2] = test system: Experimental Autoimmune Encephalomyelitis (EAE) model; test: Experimental autoimmune encephalomyelitis model; type: in vivo, C57BL/6 female mice
Protocol: EAE was induced in C57BL/6 female mice at 6-8 weeks of age by subcutaneous immunization with MOG35-55 (300 μg: peptide synthesis section, CBM, CSIC. Madrid, Spain) and 200 μg of Mycobacterium tuberculosis (H37Ra Difco, Franklin Lakes, N.J., USA) in a 1:1 mix with […]. On the same day and 2 days later, mice were injected intraperitoneally with 200 ng of pertussis toxin (Sigma) in 0.1 mL PBS. […] The mice were examined daily for clinical signs of EAE and disease scores were measured as follows: 0, no disease; 1, limb tail; 2, limb tail and hind limb weakness; 3, hind limb paralysis; 4, hind limb and front limb paralysis; 5, moribund and death. All animals were sacrificed at 28 days for further analysis,
Mice were anesthetized by i.p. administration with a ketamine-xylazine solution and they were transcardially perfused with saline 0.9%. The spinal cord was obtained by extrusion with saline. […]
For IHC analysis, free-floating thoracic spinal cord (50 μm) sections were washed with 0.1M PB. […] Samples were photographed, digitalized using a Leica DFC420c camera and analyzed using Image J software. Myelin integrity was analyzed using the Hito CryoMyelmStain™ Kit (Gold phosphate complex Myelin Staining Kit) following manufacturer's recommendation (Hitobiotech Corp., Kingsport, Tenn., USA). […]

[3] = test system: cuprizone/rapamycin (C/R) mouse model; test: Cuprizone/rapamycin model, myelin assessment in grey and white matter; type: in vivo, Male C57BL/6J
Protocol: Myelin assessment in grey and white matter was evaluated via: (1) PLP staining and density in the hippocampus and cortex; and (2) PPD staining and manual counts in the corpus callosum.
Male C57BL/6J (n=5 or 12/group) were treated for 12 weeks with C/R to cause demyelination of white and gray matter regions of the brain. […] Thereafter, the brains were harvested and processed for immunohistochemical staining and quantification of myelinated axons in gray matter (hippocampus (HIP), cerebral cortex (CTX)) by proteolipid protein (PLP) staining and white matter (corpus callosum CC)) by paraphenylenediamine (PPD) staining.

[4] = oral 5, 10, 20 mg/kg/day for 6 weeks, vs vehicle control

C=C(C)C1CCC(C)=C[C@H]1C1=C(O)C(=O)C(CCCCC)=C(NCc2ccccc2)C1=O (stereo partly drawn) [VCE-004.8, (1′R,6′R)-3-(Benzylamine)-6-hydroxy-3′-methyl-4-pentyl-6′-(prop-1-en-2-yl)[1,1′-bi(cyclohexane)]-2′,3,6-triene-2,5-dione]
fraction unbound (in vitro): < 0.01 | Estimated Precipitation Range, Calculated Mid-range [1]: <6.5 µM | Estimated Precipitation Range, Lower Bound [1]: <1 µM | Estimated Precipitation Range, Upper Bound [1]: 6.5 µM | microglial reactivity and infiltration of inflammatory cells ([2]; EAE animals, myelin structure preserved): significantly reduced | therapeutic effect in EAE model ([2]; doses of 5 mg/kg, 10 mg/kg, and 20 mg/kg): highly significant therapeutic effect | levels of myelinated axons in white matter (corpus callosum), dose relation [3]: dose related effect | area of PLP staining / myelination in the cortex [3, 4]: no significant increase | area of PLP staining / myelination in the hippocampus [3, 4]: no significant increase
